Assays:
[1] = following multiple administrations of tigecycline; cited from earlier work
[2] = Tigecycline metabolites identified in CD-1 mouse serum and urine and rabbit serum samples (LC/MS); type: in vivo; conditions: in vivo, iv
Description: The column temperature was 25° C. The flow rate was 0.2 mL/min. […] Gradient 1 was used for metabolite identification (qualitative analysis).
LC/MS analysis was conducted on extracts of serum and from CD-1 mice and rabbits, and on urine from CD-1 mice. The mass spectral data for tigecycline and its metabolites are discussed below.

[3] = LC/MS detection of tigecycline metabolites in CD-1 mouse serum and urine after intravenous tigecycline; conditions: mouse, in vivo, iv, 5 mg/kg
Description: Fifteen male CD-1 mice, with an average weight of 31.3 g at the time of dosing, were used. Animals were given food and water ad libitum. Mice in the 0.5 and 2 hour blood collection groups were housed in standard cages, while those in the 4 hour blood collection group were housed in metabolism cages for the collection of urine. Mice were dosed by the Bioresources Department at Wyeth Research, Collegeville, Pa.
For mice and rabbits, the intravenous dosing solutions was prepared by dissolving 50 mg of tigecycline in 5.0 mL of 0.9% sterile saline solution to make a working stock solution. The working stock solution was diluted with 0.9% sterile saline solution to 0.5 mg/mL for mice and 4 mg/mL for rabbits. The mouse dose (5 mg/kg, 10 mL/kg) was administered as a bolus injection via the tail vein. The rabbit dose (4 mg/kg, 1 mL/kg) was administered as a bolus injection via the marginal vein of the ear.
For mice (n=5/time point), blood (approximately 0.7 mL) was collected by cardiac puncture at 0.5, 2 and 4 hours following administration of tigecycline. For rabbits, blood (approximately 7 mL) was collected via the ear vein at 0.5, 2 and 6 hours following the tigecycline dose. Serum was separated following clot formation at room temperature and centrifugation for 15 minutes at 4° C. and 3000 rpm. The serum was transferred to a fresh tube and was stored at approximately −70° C. until analysis as described below under “Serum Sample Preparation for LC/MS Analysis. In addition, urine was collected from mice in the 4 hour blood collection group and was stored at approximately −70° C. until analysis, as described below under “Urine Sample Preparation for LC/MS Analysis.”
Mouse urine was thawed and an aliquot (1 mL) transferred to a fresh tube. The sample was centrifuged at 14,000 rpm and room temperature for 10 minutes using a Model 5415C Eppendorf centrifuge (Brinkmann Instruments, Westbury, N.Y.) to remove any particulates. The sample was then transferred to a fresh tube and was analyzed by LC/MS, as described below under “Liquid Chromatography/Mass Spectrometry Analysis.”.
Mouse and rabbit serum samples were pooled at each collection time and analyzed for tigecycline, its epimer, tigecycline glucuronide (M7 and its epimer M6), 9-aminominocycline (M3) and N-acetyl-9-aminominocycline (M9 and its epimer M8). Aliquots of serum (500 μL) were transferred to new tubes and deuterated tigecycline (30 ng/mL final concentration) was added as an internal standard (quantitative analysis only). EDTA (40 μL of 0.5 M EDTA) was added to each sample and the samples vortex mixed. Acetonitrile (500 μL) was added to each sample, samples were vortex mixed and denatured protein separated by centrifugation at 14,000 rpm and room temperature for 10 minutes using a Model 5415C Eppendorf centrifuge (Brinkmann Instruments). The supernatant was transferred to a fresh tube and the solvent evaporated under a stream of nitrogen using a Turbovap Model LV evaporator (Caliper Life Sciences, Hopkinton, Mass.).
The HPLC system used for mass spectrometric analysis was a Waters Alliance Model 2695 HPLC system (Waters Corp., Milford, Mass.). It was equipped with a built-in autosampler and a Model 996 diode array UV detector. The UV detector was set to monitor 210-400 nm. Separations for metabolite characterization were accomplished on a Phenomenex Luna C18(2) column (150×2.1 mm, 5 μm) (Phenomenex, Torrance, Calif.) equipped with a Keystone Uniguard C18 guard column (10×2.1 mm) (Thermo Electron Corp., Bellefonte, Pa.). The column temperature was 25° C. The flow rate was 0.2 mL/min. Mobile phase A was 10 mM ammonium acetate in water and mobile phase B was acetonitrile.

- Species and matrix in which identified [2]: R-S
- observed in mouse urine by LC/MS [3]: No M9 was observed
SMILES: CC(=O)Nc1cc(N(C)C)c2c(c1O)C(=O)C1=C(O)C3(O)C(=O)C(C(N)=O)=C(O)C(N(C)C)C3CC1C2 (stereo not drawn) [Metabolite M9, N-acetyl-9-aminominocycline]
- concentrations previously reported in human serum [1]: 3 to 15 ng/mL

Source: patent publication US7534766B2, “Glucuronide metabolites and epimers thereof of tigecycline” (Wyeth, priority 2004, dated 2009)
